In article PMC6321231, “Synthesis and Anti-Inflammatory Activities of Phloroglucinol-Based Derivatives” (Molecules, 2018):

Tests used:
[1] = test system: iNOS; assay: Assay for iNOS inhibition (nitrite by Griess reagent) in LPS-induced macrophages; type: cell-based; conditions: Mus musculus, RAW264.7; LPS-induced RAW 264.7 macrophages; NA = not active at 50 µM
Procedure: The assay was performed in mouse macrophages (RAW264.7, obtained from ATCC)) cultured in phenol red free RPMI medium supplemented with 10% bovine calf serum and 100 U/mL penicillin G sodium, and 100 μg/mL streptomycin at 37 °C in an atmosphere of 5% CO2 and 95% humidity. Cells were seeded in 96-well plates (50,000 cells/well) and incubated for 24 h for a confluency of 75% or more. Test samples diluted in serum free medium were added, and after 30 min of incubation, LPS (5 μg/mL) was added and cells were further incubated for 24 h. The concentration of nitric oxide (NO) was determined by measuring the level of nitrite in the cell culture supernatant by using Griess reagent. Percent inhibition of nitrite production by the test compound was calculated in comparison to the vehicle control. IC50 values were obtained from concentration response curves. Parthenolide was used as a positive control.

[2] = test system: NF-κB; assay: Assay for NF-κB inhibition (luciferase reporter) in PMA-induced SW1353 cells; type: cell-based; conditions: PMA-induced human chondrosarcoma cells (SW1353); NA = not active at 100 µM
Procedure: The assay was performed in human chondrosarcoma cells (SW1353, obtained from American Type Culture Collection (ATCC), Manassas, VA, USA). Cells were cultured in 1:1 mixture of DMEM/F12 supplemented with 10% fetal bovine serum (FBS), 100 U/mL penicillin G sodium, and 100 μg/mL streptomycin at 37 °C in an atmosphere of 5% CO2 and 95% humidity. Cells (1.2 × 10^7) were washed once in an antibiotic and FBS-free DMEM/F12, and then resuspended in 500 μL of antibiotic-free DMEM/F12 containing 2.5% FBS. NF-κB luciferase plasmid construct was added to the cell suspension at a concentration of 50 μg/mL and incubated for 5 min at room temperature. The cells were electroporated at 160 V and one 70-ms pulse using BTX disposable cuvettes model 640 (4-mm gap) in a BTX Electro Square Porator T 820 (BTX I, San Diego, CA, USA). The transfected cells were plated to the wells of 96-well plates at a density of 1.25 × 10^5 cells per well. After 24 h, cells were treated with different concentrations of test compound for 30 min before the addition of PMA (70 ng/mL) and incubated for 8 h. Luciferase activity was measured using the Luciferase Assay kit (Promega). Light output was detected on a SpectraMax plate reader. Percent inhibition of luciferase activity was calculated as compared to vehicle control, and IC50 values were obtained from concentration response curves. Parthenolide was used as positive control.

[3] = test system: Cryptococcus neoformans; design: method as in PMID 27584935; conditions: against Cryptococcus neoformans; cited from earlier work

Structure (SMILES)	IC50 [1] [µM]	IC50 [2] [µM]	in vitro antifungal activity [3]
CC(=O)c1c(O)cc(O)c(C(C)=O)c1O [Compound 2]	19 ± 1.4	34 ± 8.5	potent
CC(C)C(=O)c1c(O)cc(O)cc1O [Compound 3]		90 ± 14.1	
CC(C)C(=O)c1c(O)cc(O)c(Cc2ccc(Br)cc2)c1O [Compound 4, 1-[3-(4-Bromo-benzyl)-2,4,6-trihydroxy-phenyl]-2-methyl-propan-1-one]	19.5 ± 0.7	37.5 ± 3.5	
COCOc1cc(OCOC)c(C(=O)C(C)C)c(O)c1Cc1ccc(Br)cc1 [Compound 5, 1-[3-(4-Bromo-benzyl)-2-hydroxy-4,6-bis-methoxymethoxy-phenyl]-2-methyl-propan-1-one]	50	29 ± 15.5	
CC(C)C(=O)c1c(O)cc(O)c(Cc2ccc(Cc3c(O)cc(O)c(C(=O)C(C)C)c3O)cc2)c1O [Compound 6, 2-Methyl-1-{2,4,6-trihydroxy-3-[4-(2,4,6-trihydroxy-3-isobutyryl-benzyl)-benzyl]-phenyl}-propan-1-one]	19 ± 1.4	85 ± 21.2	
CC(C)C(=O)c1c(O)cc(O)c(Cc2ccc(CN3CCCCC3)cc2)c1O [Compound 7, 2-Methyl-1-[2,4,6-trihydroxy-3-(4-piperidin-1-ylmethyl-benzyl)-phenyl]-propan-1-one]	49 ± 1.4		
C=C1C(=O)O[C@H]2[C@H]1CC/C(C)=C/CC[C@@]1(C)O[C@@H]21 [Parthenolide, reference compound]	2.5 ± 0.2	20.5 ± 2.9	
